# Source: patent US20080182277A1, “Assays and methods using biomarkers” (Genentech, Inc., priority 2005, published 2008)
# Key:
# DLD-1 tumor xenografts = assay: Tumor xenograft study, DLD-1; assay type: in vivo, mice; details: Fut-6-positive DLD-1; 60 mg/kg/day i.p. on days 0-4
# Method: (§1) FIG. 10A-D illustrates differential expression of specific O-glycosylation enzymes in Apo2L/TRAIL-sensitive and -resistant cancer cell lines: (A) Cell viability was measured after incubation with varying doses of Apo2L/TRAIL. IC50 for each cell line was computed as the concentration of Apo2L/TRAIL that gives 50% loss of viability. Each cell viability experiment was repeated at least three times in presence of low (0.5%) and high (10%) fetal bovine serum. Black, grey, or open symbols depict cell lines that are highly sensitive, moderately sensitive, or resistant to Apo2L/TRAIL, respectively. (B) ppGalNAcT-14 mRNA expression levels (probe set 219271 at) in pancreatic and malignant melanoma cell lines. Cell lines are arranged by tissue type and sensitivity to Apo2L/TRAIL. […] Athymic nude mice carrying GalNAcT-3/Fut-6-positive (left panel) or GalNAcT-3/Fut-6-negative (right panel) tumors received vehicle or Apo2L/TRAIL (60 mg/kg/day i.p. on days 0-4) and tumor volume was monitored (mean ±SE, N=10 mice/group).
# (§2) Monosaccharide composition of CHO-cell-derived DR5 was obtained after hydrolysis with 4 N TFA. […] Tumor measurements were collected by a digital caliper and tumor volumes calculated using the formula […] (A=length) (B=width)^2. […]
# RKO tumor xenografts = assay: Tumor xenograft study, RKO; assay type: in vivo, mice; details: Fut-6-negative RKO; 60 mg/kg/day i.p. on days 0-4
# Method: as §1, §2
# PSN-1 cells = assay: Immunoblot analysis of the Apo2L/TRAIL-induced caspase cascade, PSN-1; assay type: cell-based, human; details: siRNA 48 h, Apo2L/TRAIL 4 or 8 h
# Method: (§3) FIG. 12 illustrates (A) Analysis of the caspase cascade induced by Apo2L/TRAIL. PSN-1 and DLD-1 cells were transfected with siRNAs against ppGalNAcT-14 or Fut-6, respectively, for 48 h. The cells were treated with Apo2L/TRAIL for 4 or 8 h, and cell lysates were analyzed by immunoblot with antibodies specific for caspase-8, Bid, caspase-9, caspase-3, or actin as a loading control. (B) PSN-1 cells were transfected with ppGalNAcT-14 siRNA as in A, treated with Apo2L/TRAIL for 4 h, and caspase-3/7 enzymatic activity in cell lysates was determined. (C) Analysis of the Apo2L/TRAIL DISC. PSN-1 cells were transfected with ppGalNAcT-14 siRNA as in A. FLAG-Apo2L/TRAIL ([…]) was added for 0-60 min, the cells were lysed, and subjected to an immunoprecipitation with an anti-FLAG antibody. DISC-associated FADD, caspase-8, DR4, and were detected by immunoblot. (D) PSN-1 cells were transfected, treated, and subjected to DISC immunoprecipitation as in C, and DISC-associated caspase-8 enzymatic activity was measured as previously described (Sharp et al., J. Biol. Chem., 280:19401 (2005).
# (§4) siRNAs were purchased as double stranded RNA oligonucleotides and transfected into the respective cell lines at a final concentration of 25 nM for each siRNA. siRNA duplexes against a non-targeting sequence (Dharmacon) was used as a control. […]
# Colo320 tumor xenografts = assay: Tumor xenograft study, Colo320; assay type: in vivo, mice; details: Fut-6-negative Colo320; 60 mg/kg/day i.p. on days 0-4
# Method: as §1, §2
# [1] = test system: panel of human cancer cell lines (23 pancreatic adenocarcinomas, 18 malignant melanomas, 36 colorectal adenocarcinomas); assay: Cell viability assay to determine IC50 for Apo2L/TRAIL in a cancer cell line panel; assay type: cell-based
# Method: FIG. 10A-D illustrates differential expression of specific O-glycosylation enzymes in Apo2L/TRAIL-sensitive and -resistant cancer cell lines: (A) Cell viability was measured after incubation with varying doses of Apo2L/TRAIL. IC50 for each cell line was computed as the concentration of Apo2L/TRAIL that gives 50% loss of viability. Each cell viability experiment was repeated at least three times in presence of low (0.5%) and high (10%) fetal bovine serum. Black, grey, or open symbols depict cell lines that are highly sensitive, moderately sensitive, or resistant to Apo2L/TRAIL, respectively. (B) ppGalNAcT-14 mRNA expression levels (probe set 219271 at) in pancreatic and malignant melanoma cell lines. Cell lines are arranged by tissue type and sensitivity to Apo2L/TRAIL. Black, grey, or open bars depict cell lines as in A. (C) mRNA expression levels of Fut-6 (top panel, probe set 211885_x_at) and ppGalNAcT-3 (bottom panel, probe set 203397_s_at) in colorectal cancer cell lines. […] Athymic nude mice carrying GalNAcT-3/Fut-6-positive (left panel) or GalNAcT-3/Fut-6-negative (right panel) tumors received vehicle or Apo2L/TRAIL (60 mg/kg/day i.p. on days 0-4) and tumor volume was monitored (mean ±SE, N=10 mice/group). […]
# DLD-1 cells = assay: Immunoblot analysis of the Apo2L/TRAIL-induced caspase cascade, DLD-1; assay type: cell-based, human; details: siRNA 48 h, Apo2L/TRAIL 4 or 8 h
# Method: as §3, §4
# Colo205 tumor xenografts = assay: Tumor xenograft study, Colo205; assay type: in vivo, mice; details: Fut-6-positive Colo205; 60 mg/kg/day i.p. on days 0-4
# Method: as §1, §2
# [2] = test system: PSN-1 pancreatic carcinoma cells; assay: siRNA knockdown followed by cell viability assay, PSN-1; assay type: cell-based, human; details: siRNA 25 nM 48 h, then Apo2L/TRAIL 24 h
# Method: (§5) FIG. 11 illustrates modulation of particular O-glycosylation enzymes alters sensitivity to Apo2L/TRAIL. (A) Colo205 cells were preincubated with the pan O-glycosylation enzyme inhibitor benzyl-GalNAc (bGalNAc), treated with Apo2L/TRAIL for 24 h, and cell viability was determined (DMSO=vehicle control). (B) PSN-1 (pancreatic carcinoma) and Hs294T (melanoma) cells were transfected with caspase-8 or ppGalNAcT-14 siRNAs for 48 h, incubated with Apo2L/TRAIL for another 24 h and cell viability was determined. siRNA duplexes against a non-targeting sequence (Dharmacon) were used as a control (NTC). (C) DLD-1 colorectal carcinoma cells were transfected with ppGalNAcT-3 or Fut-6 by siRNAs and tested as in B. (D) HEK293 cells were co-transfected with plasmids encoding the indicated genes in combination with ppGalNAcT-14 or vector control. Apoptosis was measured at 24 h by Annexin V staining (left panel). H1569 melanoma cells were transduced with retrovirus directing ppGalNAcT-14 expression or control retrovirus; resulting cell line pools were treated with Apo2L/TRAIL for 24 h and cell viability was determined (right panel). Western blot analysis using anti-FLAG antibodies was used to verify expression of epitope-tagged ppGalNAcT-14.
# (§6) FIG. 14 illustrates (A) Reduction in mRNA expression of ppGalNAcT-14 or ppGalNAcT-3 in PSN-1 or DLD-1 cells after 48 h siRNA knockdown by Taqman analysis. […]
# Hs294T melanoma cells = assay: siRNA knockdown followed by cell viability assay, Hs294T; assay type: cell-based, human; details: siRNA 25 nM 48 h, then Apo2L/TRAIL 24 h
# Method: as §5, §6
# Colo205 cells = assay: Inhibition of O-glycosylation with benzyl-GalNAc, then Apo2L/TRAIL viability assay; assay type: cell-based, human; details: preincubation with Benzyl-a-GalNAc 2 mM or 4 mM, then Apo2L/TRAIL 24 h
# Method: as §5
# Colo205 cells were grown in the presence of Benzyl-a-GalNAc (2 mM or 4 mM) for 72 hours. […]
Compound,effect on growth of established tumor xenografts (DLD-1 tumor xenografts),effect on growth of established tumor xenografts (RKO tumor xenografts),"Apo2L/TRAIL-induced caspase processing (caspase-8, Bid, caspase-9, caspase-3) (PSN-1 cells)",effect on growth of established tumor xenografts (Colo320 tumor xenografts),cell lines classified as highly or moderately sensitive to Apo2L/TRAIL ([1]; 29/77 cell lines),"Apo2L/TRAIL concentration required for achieving 50% cell death, mean ([1]; mean over the 29 highly or moderately sensitive cell lines)","Apo2L/TRAIL-induced caspase processing (caspase-8, Bid, caspase-9, caspase-3) (DLD-1 cells)",effect on growth of established tumor xenografts (Colo205 tumor xenografts),effect on sensitivity to Apo2L/TRAIL (cell viability) [2],effect on sensitivity to Apo2L/TRAIL (cell viability) (Hs294T melanoma cells),effect on sensitivity to Apo2L/TRAIL (cell viability) (Colo205 cells)
"Apo2L/TRAIL: nontagged soluble recombinant human Apo2L/TRAIL, prepared as described in Lawrence et al.",tumor regression followed by a greatly delayed tumor progression,did not respond,essentially complete processing of caspase-8,did not respond,38%,250 ng/mL,essentially complete processing of caspase-8,tumor regression followed by a greatly delayed tumor progression,,,
"5′ GGACAAAGTTTACCAAATG-dTdT 3′ [caspase-8 siRNA, reference compound]",,,prevented these events,,,,prevented these events,,essentially complete protection,essentially complete protection,
"CC(=O)N[C@H]1[C@@H](OCc2ccccc2)O[C@H](CO)[C@H](O)[C@@H]1O [benzyl-GalNAc, Benzyl-a-GalNAc]",,,,,,,,,,,markedly reduced sensitivity to Apo2L/TRAIL
